What all share (assay): cell viability (% survival relative to DMSO control, bortezomib = 0%); higher = less cytotoxic
Settings in all cases: 72 h

For one test, the system named is HL-60. The gist of the method:
(§1)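 Percent survival is reported as the mean of duplicate wells. Cells from 10 AML and 5 CML lines were plated in 384-well plates containing compounds at 1, 10, 100, 1000 or 10000 nM and kept for 72 h at 37 °C in 5% CO2. Readout used CellTiter-Glo luminescence, scaled so that vehicle equals 100% and a 10 µM positive control equals 0%.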

The test system of another test is K-562. The gist of the method: as §1
The next test concerns KG-1. The method in brief: as §1
The subject of another test is MV4-11. The gist of the method: as §1

For the compound `CCOC(=O)N1c2ccc(C(F)(F)F)cc2[C@@H](N(Cc2cc(C(F)(F)F)cc(C(F)(F)F)c2)C(=O)OC)C[C@H]1CC` [Torcetrapib], the cell viability worked out at 92.7% in the test with HL-60 (1 nM); 109% in the test with HL-60 (10 nM); 107% in the test on HL-60 (1000 nM); 91% in the test with HL-60 (10000 nM); 103% in the test on K-562 (1 nM); 109% with K-562 (10 nM). The cell viability was 121% with K-562 (100 nM); 98.6% in the test on K-562 (1000 nM); 94.4% with K-562 (10000 nM); 84.9% in the test on KG-1 (1 nM); 52.6% in the test with KG-1 (10 nM); 107% in the test on KG-1 (100 nM). The cell viability in the test with KG-1 (1000 nM) stood at 81.1%; with KG-1 (10000 nM), 45.1%; in the test with MV4-11 (1 nM), 103%; in the test on MV4-11 (10 nM) it was 105%; in the test with MV4-11 (100 nM), 147%; in the test on MV4-11 (1000 nM), 84.6%. For the same compound, the cell viability in the test with MV4-11 (10000 nM) is 53.3%.

Consider `Oc1cc(Cl)ccc1Oc1ccc(Cl)cc1Cl` [Triclosan], for which the cell viability came out at 90.3% in the test with HL-60 (1 nM); 76.6% in the test on HL-60 (10 nM); 85.1% with HL-60 (100 nM); 106% in the test on HL-60 (1000 nM); 102% in the test on HL-60 (10000 nM); 103% with K-562 (1 nM). For the same compound, the cell viability stood at 105% in the test with K-562 (10 nM); 93.8% in the test on K-562 (100 nM); 106% with K-562 (1000 nM); 66.6% in the test on K-562 (10000 nM); 111% with KG-1 (1 nM); 89.3% in the test with KG-1 (10 nM). Also, the cell viability in the test with KG-1 (100 nM) came to 98.3%; with KG-1 (1000 nM) it was 109%; in the test on KG-1 (10000 nM), 143%; with MV4-11 (1 nM) it was 110%; in the test on MV4-11 (10 nM), 82.5%; in the test on MV4-11 (100 nM), 104%. Moreover, the cell viability in the test on MV4-11 (1000 nM) was found to be 93.7%; in the test on MV4-11 (10000 nM), 82.1%.

Turning to `COc1cc2c(NC3CCN(C)CC3)nc(N3CCCN(C)CC3)nc2cc1OCCCN(C)C` [UNC0224], the cell viability in the test with HL-60 (1 nM) was determined as 92.3%; with HL-60 (10 nM), 123%; in the test on HL-60 (100 nM) it was 97.8%; in the test on HL-60 (1000 nM) it was 89.5%; in the test with HL-60 (10000 nM) it was 65.1%; in the test with K-562 (1 nM), 95%. Moreover, the cell viability was determined as 106% with K-562 (10 nM); 102% in the test with K-562 (100 nM); 102% in the test on K-562 (1000 nM); 88.8% with K-562 (10000 nM); 102% in the test with KG-1 (1 nM); 117% in the test on KG-1 (10 nM). Further, the cell viability worked out at 94.1% in the test on KG-1 (100 nM); 96.8% with KG-1 (1000 nM); 108% in the test with KG-1 (10000 nM); 97.8% in the test on MV4-11 (1 nM); 98.7% in the test with MV4-11 (10 nM); 95.2% in the test with MV4-11 (100 nM). Also, the cell viability with MV4-11 (1000 nM) is 91.4%; in the test on MV4-11 (10000 nM) it was 64%.

`CC(C)C[C@H](NC(=O)[C@@H](O)[C@H](N)Cc1ccccc1)C(=O)O` [Ubenimex]: the cell viability with HL-60 (1 nM) was found to be 98.3%; in the test with HL-60 (10 nM) it was 124%; with HL-60 (100 nM), 98.7%; in the test with HL-60 (1000 nM), 77.9%; in the test with HL-60 (10000 nM), 97%; in the test on K-562 (1 nM) it was 111%. Besides, the cell viability with K-562 (10 nM) turned out to be 102%; in the test on K-562 (100 nM) it was 113%; in the test with K-562 (1000 nM), 89.6%; with K-562 (10000 nM) it was 102%; in the test on KG-1 (1 nM), 111%; in the test on KG-1 (10 nM), 105%. The cell viability amounted to 98.9% in the test on KG-1 (100 nM); 92.2% in the test with KG-1 (1000 nM); 88.9% with KG-1 (10000 nM); 100% in the test on MV4-11 (1 nM); 103% with MV4-11 (10 nM); 109% with MV4-11 (100 nM). In addition, the values for the cell viability with MV4-11 (1000 nM) and with MV4-11 (10000 nM) were 99.8% and 143%, respectively.

As to `O=P(O)(O)C(O)(Cn1ccnc1)P(=O)(O)O` [Zoledronic acid], the cell viability worked out at 84.3% in the test on HL-60 (1 nM); 111% in the test on HL-60 (10 nM); 105% in the test on HL-60 (100 nM); 98.3% with HL-60 (1000 nM); 111% in the test on HL-60 (10000 nM); 105% in the test with K-562 (1 nM). The cell viability with K-562 (10 nM) is 101%; in the test on K-562 (100 nM), 106%; with K-562 (1000 nM), 98.6%; in the test with K-562 (10000 nM), 102%; with KG-1 (1 nM), 99.3%; in the test with KG-1 (10 nM), 106%. The cell viability was found to be 111% in the test on KG-1 (100 nM); 103% in the test on KG-1 (1000 nM); 108% in the test with KG-1 (10000 nM); 94.7% with MV4-11 (1 nM); 104% with MV4-11 (10 nM); 88.7% in the test with MV4-11 (100 nM). In addition, the cell viability with MV4-11 (1000 nM) was 101%; in the test on MV4-11 (10000 nM) it was 81.5%.

Source of the values: the supplement of paper PMC8671470.
